Measured values published in PubChem BioAssay (NCI).
“And” between values parts separate entries of the source, which are not always exact repeats. Equal entries are not always repeated.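 Briefly, cells in 96-well plates were exposed to five compound concentrations for 48 h, and endpoints were estimated by linear interpolation. Here, GI50 denotes the concentration required for 50% inhibition of growth. TGI marks complete inhibition of growth.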

Columns and labels:
Assay in all cases: NCI tumour cell line growth inhibition, 48 h
MDA-N = test system: MDA-N
HOP-18 NSCLC = test system: HOP-18 NSCLC
DMS 273 small cell lung = test system: DMS 273 small cell lung
LXFL 529 NSCLC = test system: LXFL 529 NSCLC
SNB-78 CNS = test system: SNB-78 CNS
KM20L2 colon = test system: KM20L2 colon
DLD-1 colon = test system: DLD-1 colon
XF 498 CNS = test system: XF 498 CNS
RXF-631 renal = test system: RXF-631 renal
P388 leukemia = test system: P388 leukemia

SMILES | TGI (MDA-N) [µM] | TGI (HOP-18 NSCLC) [µM] | TGI (DMS 273 small cell lung) | TGI (LXFL 529 NSCLC) | TGI (SNB-78 CNS) [µM] | TGI (KM20L2 colon) [µM] | TGI (DLD-1 colon) | TGI (XF 498 CNS) | further results
C=CCN1CC2CON(C(=O)C(OC)(c3ccccc3)C(F)(F)F)C2C1C(C)C (stereo not given) |  |  |  |  |  |  |  |  | GI50 (MDA-N): 31.8 µg/mL
CC1C(=O)OC2CC[N+]3([O-])CC=C(COC(=O)C(C)(O)C1(C)O)C23 (stereo not given) | > 100 |  |  |  |  |  |  |  | 
C=CCn1c2c(sc1=S)C(S)N=CN2 (stereo not given) |  | 70.1 | > 100 µM | > 100 µM | > 100 | > 100 | > 100 µM | > 100 µM | 
Cc1ccc(Nc2nnc(-c3ccc4c(c3)OCO4)o2)c(C)c1 | > 100 |  |  |  |  |  |  |  | 
N#CC(C(=O)CCC(=O)Nc1cccc(C(F)(F)F)c1)c1ccc(Cl)cc1 (stereo not given) |  | > 100 | > 100 µM | > 100 µM | > 100 | > 100 | > 100 µM | > 100 µM | TGI (RXF-631 renal): > 100 µM
CC(C)(C)OC(=O)N1N=NC2C1C1CC(OCc3ccccc3)(OCc3ccccc3)C2O1 (stereo not given) |  | > 100 | > 100 µM | 35 µM | > 100 | > 100 | > 100 µM | 30.3 µM | TGI (RXF-631 renal): > 100 µM
CCOC(=O)Cn1c(=O)n(C)c(=O)c2c1ncn2Cc1ccccc1 |  |  | > 100 µM | > 100 µM | > 100 | > 100 | > 100 µM | > 100 µM | 
Cc1ccc(S(=O)(=O)NC(=O)NC2=NC(C)(C)N(c3ccc(Cl)c(Cl)c3)C(N)=N2)cc1 | > 100 |  |  |  |  |  |  |  | 
O=C1C(=O)N(c2cc(Cl)ccc2Cl)C(=O)C(=O)C1c1nc2ccccc2o1 |  | > 100 | > 100 µM | > 100 µM | > 100 | > 100 | > 100 µM | > 100 µM | TGI (RXF-631 renal): > 100 µM
COc1cc(C2C(C(=O)Nc3cc(F)c(F)cc3F)=C(C)NC(C)=C2C(=O)Nc2cc(F)c(F)cc2F)ccc1O |  |  |  | > 100 µM | > 100 | > 100 | > 100 µM | 33.1 µM | TGI (RXF-631 renal): 37.9 µM
Oc1ccc(Br)cc1C=Nc1ccc(N=Cc2cc(Br)ccc2O)cc1 |  |  |  |  | > 100 | > 100 | > 100 µM |  | 
COC(=O)/C(=C\c1ccc(N(CCC#N)CCC#N)cc1)NC(=O)c1cc([N+](=O)[O-])ccc1Cl |  | > 100 | > 100 µM | > 100 µM | > 100 | > 100 | > 100 µM |  | 
CCOc1ccccc1NC(=O)C(C#N)C1=C(Cl)C(=O)c2ccccc2C1=O (stereo not given) |  | 2.85 | 3.35 µM and 3.47 µM | 3.25 µM and 3.16 µM | 4.42 |  | 3.31 µM and 4.27 µM | 3.75 µM and 3.24 µM | GI50 (RXF-631 renal): 6.8 µM; TGI (RXF-631 renal): 4.03 µM and 26.2 µM; GI50 (SNB-78 CNS): 2.03 µM; GI50 (KM20L2 colon): 17.7 µM; GI50 (DLD-1 colon): 2.14 µM; GI50 (XF 498 CNS): 1.83 µM
O=C(O)C12CC3(C(=O)O)CC(C(=O)O)(CC(C(=O)O)(C1)C3=O)C2=O | > 100 |  |  |  |  |  |  |  | 
OCC(O)CNc1ccnc2cc(Cl)ccc12 (stereo not given) |  | > 100 |  | > 100 µM | > 100 | > 100 | > 100 µM | > 100 µM | 
O/C(=C\c1nc2ccccc2nc1NC12CC3CC(CC(C3)C1)C2)c1ccc(Br)cc1 | > 10 |  |  |  |  |  |  |  | 
Cc1cccc(C)c1NC(=O)C(=O)CC(=O)c1cccc([N+](=O)[O-])c1 |  | > 100 | > 100 µM | > 100 µM | > 100 | > 100 | > 100 µM | > 100 µM | 
Cc1cc(C(C)(C)C)cc(Cc2cc(C(C)(C)C)cc(Cc3cc(C(C)(C)C)cc(C)c3O)c2O)c1O |  | 29 | 22.8 µM | 20.5 µM | 17.9 | 29.6 | 18.5 µM | 4.13 µM | 
CCCCc1c2c(nc3c1CCC/C3=C\c1ccccc1)/C(=C/c1ccccc1)CCC2 |  |  | > 100 µM | > 100 µM |  | > 100 |  | > 100 µM | 
CC(=O)OC1C2CCC1C1C2C2(Cl)C(Cl)=C(Cl)C1(Cl)C2(Cl)Cl (stereo not given) |  | 33.8 | 25.4 µM | 33.9 µM | 34.8 | 22.9 | 33.3 µM | 23.1 µM | 
COC1=C(Br)C(=O)c2nc(C)ccc2C1=O |  | 30.9 | 31.8 µM | 16.7 µM | 41.6 | 33.3 | 22.2 µM |  | 
Nc1ccc2nc3n(c2c1)C(=O)c1ccccc1-3 | > 100 |  |  |  |  |  |  |  | 
COc1cc(C(=O)C/C(CCC(=O)Nc2ccc(Cl)cc2Cl)=N/NC(=O)C(=O)NN)ccc1O |  | > 100 |  | > 100 µM |  | > 100 | > 100 µM | > 100 µM | TGI (RXF-631 renal): > 100 µM
O=S1(=O)OCCOS(=O)(=O)C1Cl |  | > 100 | > 100 µM | > 100 µM | > 100 |  | > 100 µM |  | 

SMILES | TGI (MDA-N) [µM] | TGI (HOP-18 NSCLC) [µM] | TGI (DMS 273 small cell lung) | TGI (LXFL 529 NSCLC) | TGI (SNB-78 CNS) [µM] | TGI (KM20L2 colon) [µM] | TGI (DLD-1 colon) | TGI (XF 498 CNS) | further results
CC(=O)OCCOCNC(=S)N/N=C/c1ccc(Br)s1 |  | > 100 | > 100 µM | > 100 µM | > 100 | > 100 | > 100 µM | > 100 µM | 
C/C(CCn1[nH]c(=O)ccc1=O)=N\OCCCc1ccccc1 |  | > 100 | > 100 µM | > 100 µM | > 100 | > 100 | > 100 µM | > 100 µM | 
c1ccc(CSc2nc3ccccc3nc2-c2cccs2)cc1 |  | > 100 | > 100 µM | > 100 µM | > 100 |  | > 100 µM | > 100 µM | 
CCOc1ccccc1NC(=O)C(=O)Cc1nc2ccccc2s1 |  | > 100 | > 100 µM | > 100 µM | > 100 | > 100 | > 100 µM | > 100 µM | TGI (RXF-631 renal): > 100 µM
O=[N+]([O-])c1ccc(CSCc2ccc(Cl)cc2)cc1 | > 100 |  |  |  |  |  |  |  | 
[F][Sn]([F])([c]1ccccc1)[c]1ccccc1 |  | 3.59 | 5.26 µM | 2.08 µM | 16 | 3.39 | 3.47 µM | 3.45 µM | GI50 (HOP-18 NSCLC): 2.08 µM; GI50 (RXF-631 renal): 2.3 µM; TGI (RXF-631 renal): 6.01 µM; GI50 (DMS 273 small cell lung): 2.17 µM; GI50 (LXFL 529 NSCLC): 0.815 µM; GI50 (SNB-78 CNS): 3.18 µM; GI50 (KM20L2 colon): 1.87 µM; GI50 (DLD-1 colon): 1.88 µM; GI50 (XF 498 CNS): 1.99 µM
Cc1nn(C(=O)c2ccc(Cl)cc2)c2c1C(c1ccc(O)cc1)SC(N)=N2 (stereo not given) | > 10 |  |  |  |  |  |  |  | 
CC1=CC(=O)C(C(O)(C(F)(F)F)C(F)(F)F)C(C)(C)C1 (stereo not given) | > 10 |  |  |  |  |  |  |  | 
O=C(O)CSc1n[nH]c(Cc2ccccc2)n1 |  | > 100 |  | > 100 µM | > 100 |  | > 100 µM | > 100 µM | TGI (RXF-631 renal): > 100 µM
CCN(CC)CCNC(=O)c1ccc(C)c(OCc2ccccc2)c1[N+](=O)[O-] | 38.3 | > 100 | 46.9 µM | 33.9 µM | > 100 | 64.5 | > 100 µM | 39.7 µM | 
C[C@H]1CCC/C=C/[C@@H]2C[C@H](O)C[C@H]2[C@H](O)[C@@H](SCC(O)CO)CC(=O)O1 (stereo not given in full) | > 100 |  |  |  |  |  |  |  | GI50 (MDA-N): 25.5 µM
O=C(CCCN1CCC2(CC1)C(=NC1CCCCC1)NC(=O)N2c1ccccc1)c1ccc(F)cc1 | 34.9 |  |  |  |  |  |  |  | 
CC1CN1c1c(C(=O)/C=C/c2ccc(Cl)cc2)c(-c2ccccc2)nn(C)c1=O (stereo not given) |  | > 10 | 6.29 µM | 5.13 µM | 5.17 | > 10 | 3.45 µM | 5.5 µM | 
CN(C)CCSc1nccc(-c2cc3ccccc3s2)n1 |  |  | 34.1 µM | 30.9 µM | 47.8 |  | > 100 µM |  | 
Cc1ncc([N+](=O)[O-])n1CCNS(=O)(=O)CCCn1ncnc1[N+](=O)[O-] | > 100 |  |  |  |  |  |  |  | 
O=c1[nH]c(=O)n([C@H]2CCCO2)cc1F | > 5000 |  |  |  |  |  |  |  | TGI (P388 leukemia): 565 µM; GI50 (MDA-N): 357 µM
Nc1ccc2[nH]cc(CCC(=O)O)c2c1 | > 100 |  |  |  |  |  |  |  | 
O=c1c2ccccc2nc(-c2ccccc2)n1NC(=S)Nc1ccccc1 |  | > 100 | > 100 µM | > 100 µM |  |  | > 100 µM |  | 
CC(C(=O)n1c2ccccc2c2ccccc21)N(c1ccccc1)c1ccccc1 (stereo not given) |  |  | 34.1 µM | 27.9 µM | 32 | 33.1 | 43 µM |  | 
CC1=C(c2cc(C(=O)Nc3ccc(Cl)cc3)nc(=S)[nH]2)Sc2ccccc2N1 |  | > 100 | > 100 µM | > 100 µM | > 100 | > 100 | > 100 µM | > 100 µM | TGI (RXF-631 renal): > 100 µM
Cc1cc2c(nn1)-c1ccccc1C2=O | > 10 |  |  |  |  |  |  |  | 
O=C(O)CN(c1ccccc1)S(=O)(=O)c1ccc([N+](=O)[O-])cc1 |  | > 100 | > 100 µM | > 100 µM |  | > 100 | > 100 µM | > 100 µM | TGI (RXF-631 renal): > 100 µM
Nc1nc(N)nc(CCCc2nc(N)nc(N)n2)n1 | > 100 |  |  |  |  |  |  |  | 
